Measured values from US20160120863A1, “SLC2A TRANSPORTER INHIBITORS” (IOMET PHARMA LTD., priority 2013, published 2016).

How the values were obtained:
[1] = target: T1, human GLUT1 (Homo sapiens, UniProt P11166); assay: [3H]-deoxy-D-glucose uptake assay, GLUT1; type: cell-based; conditions: [3H]-deoxy-D-glucose uptake in HEK293 cells stably expressing human GLUT1
T1 construct: expressed in transfected cells
T1 sequence (P11166 1-492): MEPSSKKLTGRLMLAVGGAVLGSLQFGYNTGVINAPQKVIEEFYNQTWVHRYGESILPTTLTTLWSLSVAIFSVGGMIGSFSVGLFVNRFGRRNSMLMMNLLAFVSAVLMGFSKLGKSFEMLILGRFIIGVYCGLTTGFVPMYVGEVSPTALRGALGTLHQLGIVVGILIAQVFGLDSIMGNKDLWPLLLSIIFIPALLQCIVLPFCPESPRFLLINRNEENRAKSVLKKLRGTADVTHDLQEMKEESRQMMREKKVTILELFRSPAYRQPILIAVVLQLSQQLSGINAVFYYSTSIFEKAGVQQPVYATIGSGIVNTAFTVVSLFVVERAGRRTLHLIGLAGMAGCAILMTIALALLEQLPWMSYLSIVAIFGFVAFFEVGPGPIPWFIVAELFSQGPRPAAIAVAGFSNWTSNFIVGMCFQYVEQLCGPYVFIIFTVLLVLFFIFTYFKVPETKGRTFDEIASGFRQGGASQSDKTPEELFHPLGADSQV
Procedure, shortened: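 HEK293 cells stably overexpressing human GLUT1 or GLUT2, seeded at 60,000 per well, treated with compounds in glucose-free uptake buffer for 30 min at 37 °C. [3H]-deoxy-D-glucose uptake quantified by scintillation counting after ice-cold PBS washes; IC50 determined.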

[2] = target: T2, human GLUT2 (Homo sapiens, UniProt P11168); assay: [3H]-deoxy-D-glucose uptake assay, GLUT2; type: cell-based; conditions: [3H]-deoxy-D-glucose uptake in HEK293 cells stably expressing human GLUT2
T2 construct: expressed in transfected cells
T2 sequence (P11168 1-524): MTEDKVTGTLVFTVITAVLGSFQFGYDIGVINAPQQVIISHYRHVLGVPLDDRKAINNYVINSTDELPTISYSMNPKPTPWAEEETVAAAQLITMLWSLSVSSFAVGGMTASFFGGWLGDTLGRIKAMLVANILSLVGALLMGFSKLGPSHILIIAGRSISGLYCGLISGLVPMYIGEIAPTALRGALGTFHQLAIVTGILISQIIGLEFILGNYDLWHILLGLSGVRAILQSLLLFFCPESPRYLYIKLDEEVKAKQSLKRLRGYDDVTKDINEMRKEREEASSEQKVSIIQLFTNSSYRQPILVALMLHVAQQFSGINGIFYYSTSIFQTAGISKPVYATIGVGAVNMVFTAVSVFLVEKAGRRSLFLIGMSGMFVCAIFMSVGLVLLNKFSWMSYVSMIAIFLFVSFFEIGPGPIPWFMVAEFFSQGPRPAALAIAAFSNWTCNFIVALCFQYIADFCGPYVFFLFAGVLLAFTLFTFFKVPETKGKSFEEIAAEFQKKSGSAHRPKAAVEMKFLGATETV
Experimental: HEK293 cells were engineered to stably express either human GLUT1, GLUT2, GLUt3 or GLUT4 by transfection with the pReceiver-Lv105 plasmid, containing either hGLUT1, hGLUT2, hGLUT3, or hGLUT4 gene constructs with lipofectamine 2000, hGLUT1- hGLUT2- hGLUT3- or hGLUT4-overexpressing polyclonal populations were isolated under purinomycin selective pressure (1 μg/ml) and maintained in Dulbecco's modified Eagle's medium supplemented with 1 μg/ml purinomycin+10% foetal bovine serum (FBS).
60,000 cells per well were seeded overnight into poly-D-lysine coasted 96-well plates. […] 90 μl of test compounds were added in glucose-free uptake buffer and cells were incubated at 37° C. for 30 min.
Cells were then washed twice with ice-cold PBS and 100 μl of Microscint-20 was added per well. Glucose uptake was quantified with a scintillation counter. The half maximal inhibitory concentration (IC50) (a measure of the effectiveness of the test compound in inhibiting glucose uptake) was determined.

For `O=C(C1COC1)N1CCN(Cc2c(-c3ccc(Cl)cc3)nc3ccc(-c4ccccc4)cn23)CC1` [Compound 171], the “GLUT1 pIC50” value [1] was “+++ (pIC50 ≧ 6.00)” and the “GLUT2 pIC50” value [2] was “+++ (pIC50 ≧ 6.00)”.
For `CN1CCN(Cc2c(-c3ccc(Cl)cc3)nc3ccc(-c4ccccc4C#N)cn23)CC1=O` [Compound 247], the “GLUT1 pIC50” value [1] was “+++ (pIC50 ≧ 6.00)” and the “GLUT2 pIC50” value [2] was “+++ (pIC50 ≧ 6.00)”.
In the case of `CC(=O)N1CCN(Cc2c(-c3ccc(Cl)cc3)nc3ccc(N(C)S(=O)(=O)C4CC4)cn23)CC1` [Compound 327], the “GLUT1 pIC50” value [1] is reported as “+++ (pIC50 ≧ 6.00)” and the “GLUT2 pIC50” value [2] is reported as “++ (pIC50 5.00-5.99)”.
For `CC(=O)N1CCN(Cc2c(-c3ccc(Cl)cc3)nc3ccc(NS(=O)(=O)C(C)C)cn23)CC1` [Compound 317], the “GLUT1 pIC50” value [1] was “++ (pIC50 5.00-5.99)” and the “GLUT2 pIC50” value [2] was “++ (pIC50 5.00-5.99)”.
In the case of `COc1ccc(C(=O)N2CCN(Cc3c(-c4ccc(Cl)cc4)nc4ccc(-c5ccccc5)cn34)CC2)cc1` [Compound 126], the “GLUT1 pIC50” value [1] is reported as “+++ (pIC50 ≧ 6.00)” and the “GLUT2 pIC50” value [2] is reported as “+++ (pIC50 ≧ 6.00)”.
`CC(=O)N1CCN(Cc2c(-c3ccc(Cl)cc3Cl)nc3cnc(NS(C)(=O)=O)cn23)CC1` [Compound 344] was tested, and the “GLUT1 pIC50” value [1] was “+− (pIC50 < 4.00)” and the “GLUT2 pIC50” value [2] was “+− (pIC50 < 4.00)”.
`c1ccc(-c2ccc3nc(C4CCOCC4)c(CN4CCOCC4)n3c2)cc1` [Compound 305] was tested, and the “GLUT1 pIC50” value [1] was “+− (pIC50 < 4.00)” and the “GLUT2 pIC50” value [2] was “+− (pIC50 < 4.00)”.
In the case of `Clc1ccc(-c2nc3cnc(C4CC4)cn3c2CN2CCNCC2)cc1` [Compound 348], the “GLUT1 pIC50” value [1] is reported as “+− (pIC50 < 4.00)” and the “GLUT2 pIC50” value [2] is reported as “+− (pIC50 < 4.00)”.
With `CC(=O)N1CCN(Cc2c(-c3ccc(Cl)cc3Cl)nc3cnccn23)CC1` [Compound 349] the “GLUT1 pIC50” value [1] was “++ (pIC50 5.00-5.99)” and the “GLUT2 pIC50” value [2] was “+− (pIC50 < 4.00)”.
`CS(=O)(=O)c1ccc2nc(-c3ccc(Cl)cc3)c(CN3CCOCC3)n2c1` [Compound 379] was tested, and the “GLUT1 pIC50” value [1] was “++ (pIC50 5.00-5.99)” and the “GLUT2 pIC50” value [2] was “+− (pIC50 < 4.00)”.
`CCC(=O)N1CCN(Cc2c(-c3ccc(Cl)cc3)nc3cnc(C4CC4)cn23)CC1` [Compound 253] was tested, and the “GLUT1 pIC50” value [1] was “+++ (pIC50 ≧ 6.00)” and the “GLUT2 pIC50” value [2] was “+++ (pIC50 ≧ 6.00)”.
`Clc1ccc(-c2nc3ccc(-c4ncon4)cn3c2CN2CCn3ncnc3C2)c(Cl)c1` [Compound 329] was tested, and the “GLUT1 pIC50” value [1] was “+++ (pIC50 ≧ 6.00)” and the “GLUT2 pIC50” value [2] was “+++ (pIC50 ≧ 6.00)”.
`O=C1CN(Cc2c(-c3ccc(Cl)cc3)nc3ccc(-c4ncon4)cn23)CCN1` [Compound 278] was tested, and the “GLUT1 pIC50” value [1] was “++ (pIC50 5.00-5.99)” and the “GLUT2 pIC50” value [2] was “++ (pIC50 5.00-5.99)”.
For `COCCS(=O)(=O)Nc1ccc2nc(-c3ccc(Cl)cc3)c(CN3CCN(C(C)=O)CC3)n2c1` [Compound 315], the “GLUT1 pIC50” value [1] was “++ (pIC50 5.00-5.99)” and the “GLUT2 pIC50” value [2] was “+− (pIC50 < 4.00)”.
`CN(c1ccc2nc(-c3ccc(Cl)cc3)c(CN3CCNC(=O)C3)n2c1)S(C)(=O)=O` [Compound 325] was tested, and the “GLUT1 pIC50” value [1] was “+++ (pIC50 ≧ 6.00)” and the “GLUT2 pIC50” value [2] was “++ (pIC50 5.00-5.99)”.
In the case of `CC(=O)N1CCN(Cc2c(-c3ccc(Cl)cc3)nc3cnc(NS(C)(=O)=O)cn23)CC1` [Compound 331], the “GLUT1 pIC50” value [1] is reported as “+− (pIC50 < 4.00)” and the “GLUT2 pIC50” value [2] is reported as “+− (pIC50 < 4.00)”.
In the case of `Clc1ccc(-c2nc3cnc(C4CC4)cn3c2CN2CCn3ncnc3C2)cc1` [Compound 261], the “GLUT1 pIC50” value [1] is reported as “+++ (pIC50 ≧ 6.00)” and the “GLUT2 pIC50” value [2] is reported as “+++ (pIC50 ≧ 6.00)”.
`Clc1ccc(-c2nc3ccc(-c4ccccc4)cn3c2CCN2CCOCC2)cc1` [Compound 342] was tested, and the “GLUT1 pIC50” value [1] was “+− (pIC50 < 4.00)” and the “GLUT2 pIC50” value [2] was “++ (pIC50 5.00-5.99)”.
In the case of `COCC(=O)N1CCN(Cc2c(-c3ccc(Cl)cc3Cl)nc3ccc(-c4ncon4)cn23)CC1` [Compound 307], the “GLUT1 pIC50” value [1] is reported as “+++ (pIC50 ≧ 6.00)” and the “GLUT2 pIC50” value [2] is reported as “++ (pIC50 5.00-5.99)”.
For `CCCS(=O)(=O)Nc1ccc2nc(-c3ccc(Cl)cc3)c(CN3CCN(C(C)=O)CC3)n2c1` [Compound 319], the “GLUT1 pIC50” value [1] was “+++ (pIC50 ≧ 6.00)” and the “GLUT2 pIC50” value [2] was “++ (pIC50 5.00-5.99)”.
`O=C1CN(Cc2c(-c3ccc(Cl)cc3Cl)nc3cnc(C4CC4)cn23)CCN1` [Compound 272] was tested, and the “GLUT1 pIC50” value [1] was “+++ (pIC50 ≧ 6.00)” and the “GLUT2 pIC50” value [2] was “+++ (pIC50 ≧ 6.00)”.
With `CC(C)(O)C(=O)N1CCN(Cc2c(-c3ccc(Cl)cc3)nc3ccc(-c4ccccc4)cn23)CC1` [Compound 308] the “GLUT1 pIC50” value [1] was “+++ (pIC50 ≧ 6.00)” and the “GLUT2 pIC50” value [2] was “+++ (pIC50 ≧ 6.00)”.
In the case of `O=C1CN(Cc2c(-c3ccc(Cl)cc3)nc3ccc(-c4ccccn4)cn23)CCN1` [Compound 294], the “GLUT1 pIC50” value [1] is reported as “+++ (pIC50 ≧ 6.00)” and the “GLUT2 pIC50” value [2] is reported as “+++ (pIC50 ≧ 6.00)”.
With `CC(=O)N1CCN(Cc2c(-c3ccc(Cl)cc3)nc3ccc(NS(C)(=O)=O)cn23)CC1` [Compound 259] the “GLUT1 pIC50” value [1] was “+++ (pIC50 ≧ 6.00)” and the “GLUT2 pIC50” value [2] was “++ (pIC50 5.00-5.99)”.
For `O=C1CCN(Cc2c(-c3ccc(Cl)cc3)nc3ccc(-c4ccccc4)cn23)CCN1` [Compound 227], the “GLUT1 pIC50” value [1] was “+++ (pIC50 ≧ 6.00)” and the “GLUT2 pIC50” value [2] was “+++ (pIC50 ≧ 6.00)”.
`CS(=O)(=O)Nc1ccc2nc(-c3ccc(Cl)cc3)c(CN3CCn4ncnc4C3)n2c1` [Compound 337] was tested, and the “GLUT1 pIC50” value [1] was “+++ (pIC50 ≧ 6.00)” and the “GLUT2 pIC50” value [2] was “++ (pIC50 5.00-5.99)”.
`CS(=O)(=O)Nc1ccc2nc(-c3ccc(Cl)cc3Cl)c(CN3CCNC(=O)C3)n2c1` [Compound 359] was tested, and the “GLUT1 pIC50” value [1] was “+++ (pIC50 ≧ 6.00)” and the “GLUT2 pIC50” value [2] was “++ (pIC50 5.00-5.99)”.
With `CS(=O)(=O)Nc1ccc2nc(-c3ccc(Cl)cc3Cl)c(CN3CCCOCC3)n2c1` [Compound 362] the “GLUT1 pIC50” value [1] was “+++ (pIC50 ≧ 6.00)” and the “GLUT2 pIC50” value [2] was “++ (pIC50 5.00-5.99)”.
